Source: PubChem BioAssay AID463199 (Broad Institute, 2010)
Activity calls are given as the source filed them.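 How the source made its calls: active means AC50, the dose giving half-maximal effect, exceeds a fixed cutoff for a compound that rescues yeast growth under heat; inactive means the rest, inconclusive results apart.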

test system: S. cerevisiae Burl-1 ts mutant growth, BacTiter-Glo, 38.5C 24 h; assay: growth induction of Burl-1 ts yeast mutant, dose response, counter-screen for SUMOylation pathway inhibitor project, whole organism, S. cerevisiae, luminescence (AID 463199)

SMILES | AC50
Cc1nc2nc[nH]n2c(=O)c1NS(=O)(=O)c1ccc([N+](=O)[O-])cc1 | > 42 µM (inactive)
CCCCCCOc1ccc(N2C(=O)CC(N3CCC(C(=O)OCC)CC3)C2=O)cc1 (configuration not stated) | > 42 µM (inactive)
COc1ccc(C(=O)O/N=C(\N)c2ccccc2)cc1OC | > 42 µM (inactive)
Nc1nnc(COc2ccc(Br)cc2Br)s1 | > 42 µM (inactive)
O=C(CSc1nc(-c2ccccc2)nc2ccc(F)cc12)Nc1cccc(C(=O)O)c1 | > 42 µM (inactive)
COC(=O)c1cc2occc2n1Cc1nc(-c2ccccc2C)oc1C | > 42 µM (inactive)
COc1ccccc1N1CCN(C(=O)c2ccc(N3CCCCS3(=O)=O)cc2)CC1 | > 42 µM (inactive)
CC(C)NC(=O)COc1ccc(S(=O)(=O)N(C)Cc2ccccc2)cc1 | > 42 µM (inactive)
CCn1c(SCC(=O)N/N=C/c2ccccc2OCC(=O)O)nnc1-c1ccc(C(C)(C)C)cc1 | > 42 µM (inactive)
COC(=O)C(CC(C)C)NC(=O)CNC(=O)c1ccccc1C (configuration not stated) | > 42 µM (inactive)
COc1cccc(NC(=O)CN2CCN(c3ccccc3F)CC2)c1 | > 42 µM (inactive)
COc1ccccc1NC(=O)c1ccc(-n2ccnc2)c([N+](=O)[O-])c1 | > 42 µM (inactive)
CC1CN(CCCOc2ccc([N+](=O)[O-])cc2)CC(C)O1 (configuration not stated) | > 42 µM (inactive)
Cn1c(-c2ccc3c(c2)OCO3)cnc1NC(=O)CCC(=O)NCCc1ccccc1 | > 42 µM (inactive)
CCCN1CCN(CCCNC(=O)CCn2nc(-c3ccccc3)ccc2=O)CC1 | > 42 µM (inactive)
Cc1cc(=O)oc(C)c1C(=O)Nc1ccc(Cl)cn1 | > 42 µM (inactive)
C/C(=N\N=C(/N)SC1CC(=O)N(c2cccc(Cl)c2)C1=O)c1cccs1 (configuration not stated) | > 42 µM (inactive)
CCOP(=O)(OCC)C(NC(=O)c1cccc(C)c1)C(Cl)(Cl)Cl (configuration not stated) | > 42 µM (inactive)
COc1ccccc1N1CCN(C(=O)C2CCN(S(=O)(=O)c3ccc(C)cc3)CC2)CC1 | > 42 µM (inactive)
CN(C)c1ccc(CN(Cc2ccco2)C(=O)c2ccco2)cc1 | > 42 µM (inactive)
COc1cccc(NC(=O)c2nn(C34CC5CC(CC(C5)C3)C4)cc2[N+](=O)[O-])c1 | > 42 µM (inactive)
O=C1NC(=O)N(Cc2ccccc2)C1=O | > 42 µM (inactive)
O=C(c1cc(N2C(=O)C3C4CCC(C4)C3C2=O)ccc1Cl)N1CCN(c2ccccc2)CC1 (configuration not stated) | > 42 µM (inactive)
Cn1c(=O)c2c(ncn2CC(=O)OCC(=O)Nc2ccc(Cl)cc2)n(C)c1=O | > 42 µM (inactive)
C=CSc1sc(Cl)c(N(C)C)c1[N+](=O)[O-] | > 42 µM (inactive)

SMILES | AC50
CCC(C(=O)Nc1cccnc1)c1ccccc1 (configuration not stated) | > 42 µM (inactive)
CCN(CC)C(=O)Cn1c(=O)n(CCCC(=O)NCc2ccccc2)c(=O)c2sccc21 | > 42 µM (inactive)
Cc1ccc(S(=O)(=O)NCc2ccc(C(=O)N3CCN(c4ccccn4)CC3)cc2)cc1 | > 42 µM (inactive)
O=c1[nH]cnc2sc3c(c12)CCC3 | > 42 µM (inactive)
CC(=O)c1ccc(C(=O)N2CCCC(N3CCN(c4ccc(F)cc4)CC3)C2)s1 (configuration not stated) | > 42 µM (inactive)
COc1ccc2c(C(=O)CN3CC(C)OC(C)C3)c[nH]c2c1 (configuration not stated) | > 42 µM (inactive)
COC(=O)c1cc2c(s1)-c1ccc(OC)cc1CC2 | > 42 µM (inactive)
S=c1[nH]nc(-c2ccco2)n1-c1ccc(Br)cc1 | > 42 µM (inactive)
O=C1CN(C(=O)COC(=O)c2ccccc2NCc2ccco2)c2ccccc2N1 | > 42 µM (inactive)
O=C(Nc1ccc(Cl)cc1)N1CCC(c2nc(-c3ccc(F)cc3)no2)CC1 | > 42 µM (inactive)
C=CCn1cc(C(C)=O)c(=O)[nH]c1=O | > 42 µM (inactive)
CC1(C)c2[nH]c3ccccc3c2C[C@H]2C(=O)N(Cc3cccc(F)c3)C(=O)N21 | > 42 µM (inactive)
Cc1ccnc(NC(=O)c2ccc(Br)s2)c1 | > 42 µM (inactive)
Cc1ccsc1C(=O)NCCc1ccc(S(N)(=O)=O)cc1 | > 42 µM (inactive)
CC(=O)Nc1ccc(CN2CCCC(CO)(Cc3cccc(Cl)c3)C2)cc1 (configuration not stated) | > 42 µM (inactive)
CCN(CC)CC(=O)Nc1ccc(Oc2ccc(NC(=O)CN(CC)CC)cc2)cc1 | > 42 µM (inactive)
CCOC(=O)C1C(=O)NC(SCC(=O)Nc2nccs2)=C(C#N)C1c1ccccc1OCC (configuration not stated) | > 42 µM (inactive)
COc1cccc(-n2c(Cc3cc(=O)[nH]c(=O)[nH]3)nnc2SCc2cccnc2)c1 | > 42 µM (inactive)
Cc1cc(NC(=O)/C=C/c2ccco2)ccc1NC(=O)c1ccccc1 | > 42 µM (inactive)
Oc1ccc(Br)cc1/C=N/n1c(COc2ccccc2)n[nH]c1=S | > 42 µM (inactive)
CC(C)C/C(=N/O)c1c[nH]c2ccccc12 | > 42 µM (inactive)
CCOc1ccc(S(=O)(=O)N2CCC(C(=O)N3CCN(c4ccccc4)CC3)CC2)cc1 | > 42 µM (inactive)
O=C(Nc1ccc(F)cc1)c1cccnn1 | > 42 µM (inactive)
COc1ccc(Cl)cc1NC(=O)C1CCCN(c2cc(C)nc3ncnn23)C1 (configuration not stated) | > 42 µM (inactive)
CCCCCCCCCCOC(=O)Cn1c(COc2ccccc2OC)[n+](C)c2ccccc21 | > 42 µM (inactive)

SMILES | AC50
CCOc1ccc(CCNC(=O)COC(=O)c2cccc(OC)c2O)cc1OCC | > 42 µM (inactive)
Cc1onc(-c2ccccc2)c1C(=O)N/N=C/C=C/c1ccccc1 | > 42 µM (inactive)
CCCCOc1ccc(C(=O)Nc2ccc(CN3CCOCC3)cc2)cc1 | > 42 µM (inactive)
COc1ccccc1OCCSc1nc2ccccc2n1CCC(=O)O | > 42 µM (inactive)
O=S(=O)(NCCN1CCCC1)c1cccc2cccnc12 | > 42 µM (inactive)
CN1C(=S)SC2CS(=O)(=O)CC21C (configuration not stated) | > 21 µM (inactive)
CCCCn1c2c(c(=O)n(C)c1=O)C(c1ccc(OC)cc1)N1CCCCCC1=N2 (configuration not stated) | > 42 µM (inactive)
Nc1nc(SCc2nc3scc(-c4cccs4)c3c(=O)[nH]2)n[nH]1 | > 42 µM (inactive)
COC(=O)c1ccc(Cn2cc(Cl)cn2)cc1 | > 42 µM (inactive)
COc1cc(C(=O)Oc2cccnc2)cc(OC)c1OC | > 42 µM (inactive)
CCN(CC)C(=O)CSc1nnc(CNc2ccc(F)cc2)n1Cc1ccco1 | > 42 µM (inactive)
COc1nc(OC)nc(N2CCC(C(=O)NC3CCCCCC3)CC2)n1 | > 42 µM (inactive)
Cn1c(Cn2nnc3ccccc32)nnc1SCC(=O)c1ccc(F)cc1 | > 42 µM (inactive)
O=C(CN(CC1CCCO1)C(=O)CNS(=O)(=O)c1ccc(F)cc1)NCc1ccccc1 (configuration not stated) | > 42 µM (inactive)
COCCCNS(=O)(=O)c1ccc(Oc2ncc(C(F)(F)F)cc2Cl)cc1 | > 42 µM (inactive)
Cc1cc(C)n(-c2nc(-c3cccc(Cl)c3)cs2)n1 | > 42 µM (inactive)
COc1ccc(S(=O)(=O)NCC(=O)N(CC(=O)NCc2ccco2)Cc2ccccc2)cc1 | > 42 µM (inactive)
COc1ccc(C2=Nn3c(nnc3-c3ccco3)SC2)cc1 | > 42 µM (inactive)
COc1ccc(N=C2SC(C(=O)O)CC(=O)N2Cc2ccc(OC)c(OC)c2)cc1 (configuration not stated) | > 42 µM (inactive)
COC(=O)c1ccc(Cl)c(NC(=O)CN(c2ccc(OC)c(OC)c2)S(C)(=O)=O)c1 | > 42 µM (inactive)
CCNCc1nc2cc(Cl)ccc2c(=O)[nH]1 | > 42 µM (inactive)
CCOP(=O)(OCC)c1cc(CC)ccc1O | > 42 µM (inactive)
O=C(OCCCCOC(=O)c1ccccc1)c1ccccc1 | > 42 µM (inactive)
Cc1nc2sc(C(c3ccco3)N3CCOCC3)c(O)n2n1 (configuration not stated) | > 42 µM (inactive)
CC(NC(=O)CCc1nnc(-c2ccc(-c3ccccc3)cc2)o1)c1nc2ccccc2[nH]1 (configuration not stated) | > 42 µM (inactive)

SMILES | AC50
CC1(C)C2CC[C@]3(C)C(CC=C4[C@@H]5C[C@@](C)(CO)[C@@H](O)C[C@]56C[C@@H](OC6=O)[C@]43C)[C@@]2(C)CC[C@@H]1O (some centres not stated) | > 42 µM (inactive)
COc1ccc(NC(=O)c2cc(C)no2)cc1Cl | > 42 µM (inactive)
O=c1[nH][nH]c(C(F)(F)F)c1C=NCc1cccs1 | > 42 µM (inactive)
CCN(CC)c1ccc(/C=N/NC(=O)OC(C)(C)C)cc1 | > 42 µM (inactive)
CCOc1ccccc1CN1CCNC(=O)C1CC(=O)NCCN1CCOC1=O (configuration not stated) | > 42 µM (inactive)
COc1ccccc1NS(=O)(=O)c1cc(Cl)ccc1OC | > 42 µM (inactive)
O=C1CCC(C(=O)N2CCN(c3ccccc3)CC2)CN1CC1CCCCC1 (configuration not stated) | > 42 µM (inactive)
COc1cc2c(=O)n(-c3ccc(C)cc3)c(=O)n(CC(=O)c3ccc4c(c3)OCO4)c2cc1OC | > 42 µM (inactive)
Cc1c(C(=O)N2CCOCC2)c(S(=O)(=O)Nc2cccc(Br)c2)c(C)n1C | > 42 µM (inactive)
O=S(=O)(NCC1CCCN(Cc2ccccc2O)C1)c1cccc2cccnc12 (configuration not stated) | > 42 µM (inactive)
CCOc1ccc(C(=O)Nc2ccc(C(F)(F)F)n(C)c2=O)cc1 | > 42 µM (inactive)
COC(=O)c1sc(NC(=O)c2ccc(Cn3cc(Cl)cn3)o2)c(C#N)c1C | > 42 µM (inactive)
Cc1cc(Oc2cc(NN3CCCCC3)c([N+](=O)[O-])cc2[N+](=O)[O-])ccc1[N+](=O)[O-] | > 42 µM (inactive)
COCCNC(=O)C(c1ccc(C)cc1)N(C(=O)CCC(=O)Nc1ccccn1)c1cccc(C)c1 (configuration not stated) | > 42 µM (inactive)
O=C(OCc1ccccc1)c1cccc(-c2nnn(Cc3ccccc3)n2)c1 | > 42 µM (inactive)
COc1ccc(-c2[nH]ncc2CNCCn2cccn2)c(F)c1 | > 42 µM (inactive)
COc1cc(/C=N/n2c(C3CCCCC3)n[nH]c2=S)cc(OC)c1O | > 42 µM (inactive)
O=S(=O)(Nn1c(O)c(C=C2N=c3ccccc3=N2)sc1=S)c1ccccc1 | > 42 µM (inactive)
CN(C(=O)COC(=O)c1cc2ccccc2cc1O)c1c(N)n(Cc2ccccc2)c(=O)[nH]c1=O | > 42 µM (inactive)
Cc1ccc(S(=O)(=O)N[C@@H](Cc2ccccc2)C(=O)CCl)cc1 | > 42 µM (inactive)
CC1CC(N(C(=O)c2ccccc2Cl)c2ccccc2)c2ccccc2N1 (configuration not stated) | > 42 µM (inactive)
Cc1ccc(S(=O)(=O)NCCS(=O)(=O)N2CCN(c3ccc(F)cc3)CC2)cc1 | > 42 µM (inactive)
